According to patent US7390826B2, “Inhibitors of animal cell motility and growth” (The Board of Trustees of The University of Illinois, priority 2002, dated 2008):
pEC50: −log10 of the molar value. Like-named read-outs stand apart in the source and are kept apart here.

Key:
[1] = tested on: Xenopus laevis embryos; experiment: frog embryo morphogenesis assay (scoring of developmental defects); format: in vivo; settings: Xenopus laevis, read-out: EC50 with respect to the defective phenotype at 72 hr following treatment
Text: In order to identify compounds that specifically perturb morphogenesis in the frog embryo, a suitable method for scoring embryos by characteristic defects was developed. A useful starting point was the “dorso-anterior index” (DAI). The DAI originally was constructed by adding new morphological characteristics to the older “index of axis deficiency” (S. R. Scharf et al., Dev. Biol., 99, 75-87 (1983)). The DAI is a scale of dorsoanterior development wherein embryos are assigned a score based on degree of dorsoanterior phenotype (K. R. Kao et al., Dev. Biol., 127, 64-77 (1988)). The scale encompasses a score of 0 (for the most axis-deficient or ventralized embryos) to 10 (for embryos with the most enhanced dorsoanterior structures), with a score of 5 signifying a normal embryo.
Because the DAI focuses only on dorsoanterior phenotypes, other categories were added to describe possible defects more comprehensively, with an emphasis on characteristics that are easily and unambiguously recognized in intact embryos, and that are diagnostic of possible effects on morphogenesis during gastrulation and neurulation. The most useful and readily scored categories that covered the most frequent deficiencies were: reduced anterior structures and microcephaly, delayed appearance or absence of eye pigmentation, overall shortness along the anteroposterior axis, bent axis, bent tail only, reduced posterior structures/tail, malformed or reduced fins, delayed or failed neural tube closure (neural fold fusion), abnormal pigmentation pattern, ventral swelling (edema), and delayed or abnormal visceral organogenesis and yolk resorption. In addition, blastopore closure, an earlier process that marks the completion of gastrulation, was observed.
In these tests, test compounds were added individually to wells each containing 4-8 embryos in 12-well plates. Embryos at stage 8.5-9, according to the classification of Nieuwkoop and Faber (P. I. Nieuwkoop et al., Normal Table of Xenopus laevis (Daudin). Amsterdam: North-Holland Publ.) (1967)), were used because these are late blastula stages before gastrulation begins at stage 10, which allowed focusing primarily on compounds that affect morphogenetic events in gastrulation and neurulation. These embryos, therefore, have undergone a midblastula transition at stage 8 (cleavage division 12) when zygotic transcription begins (J. Newport et al., Cell, 30, 675-686 (1982); J. Newport et al., Cell, 30, 687-696 (1982)) but have not yet started the morphogenetic movements of gastrulation.
Standard procedures were used in the care of animals, gamete preparation, fertilization of oocytes, and culture of embryos (B. K. Kay et al., Methods in Cell Biology, Volumn 36 (San Diego: Academic Press, Inc.) (1991)). In order to stimulate ovulation, female frogs were injected with 500 units of human chorionic gonadotropin (HCG). Eggs were squeezed from female frogs 12 hours later. Testes were removed from euthanized male frogs that had been primed with 50 units of HCG 4-6 hours earlier. The testes were stored at 4° C. in single strength Marc's Modified Ringer's solution with 50 μg/ml gentamycin and used for no more than 10 days. Small pieces of testes were macerated and spread over eggs for in vitro fertilization in Petri dishes. Fertilized eggs were placed in one-tenth strength Modified Barth's Saline (MBS) with 50 μg/ml gentamycin at constant temperature (19° C.) in a temperature-controlled incubator and development allowed to proceed under these conditions. Embryos were dejellied by briefly swirling them in a solution of 2% (w/v) L-cysteine, pH 8.0. The embryos then were rinsed extensively with one-tenth strength MBS to wash out the cysteine. Experiments were started within an hour of dejellying the embryos.
Experiments were carried out in 12-well flat-bottom polystyrene plates with 4-8 embryos per well in 1.0 ml of one-tenth strength MBS with 50 μg/ml gentamycin at 19° C. […]

[2] = tested on: MDCK cells; experiment: MDCK cell proliferation; format: cell-based, canine
Protocol: In FIG. 2A, cells were plated at low cell density (1×10^4 cells/mL) and allowed to attach and begin to grow for 48 hours prior to the start of experiment. The treatments were 0.1% DMSO (control, n=9 cultures), 50 μM compound 1 (n=8), or 50 μM compound 11 (n=7). Reported values are mean with SEM of the percent increase in cell number from 0 to 48 hours after addition of compound 1.
The values were mean with SEM of the percent increase in cell number another 48 hours after replacement of medium containing 50 μM compound 1 (n=8 cultures) or 0.1% DMSO (n=9) with fresh medium containing 0.1% DMSO.
MDCK cell proliferation: MDCK cells were plated on multiwell tissue culture plates at low density ([…]). Cells were allowed to attach and begin to grow for 48 hours before the start of the experiment. Fresh medium with or without compound was then added, and cells were incubated for 48 hours. At both 0 and 48 hours, some of the parallel wells for control and compound treatments were washed twice with PBS and treated with trypsin/EDTA solution to detach the cells. An equal volume of medium was added, cells were collected and counted using a hemacytometer. For reversibility, some of the parallel cultures for both control and compound treatments were grown another 48 hours after washing twice with PBS and replacing medium with fresh compound-free medium. At both the time of washing out and 48 hours later, some of the parallel wells for control and compound treatments were washed twice with PBS, detached from the plates with trypsin/EDTA solution, and the number of cells was counted.

[3] = tested on: MDCK cell wounds; experiment: lamellipodial density at the margin of MDCK cell wounds; format: cell-based, canine; parameters: key to Lamellipodial Density: lamellipodial protrusions per unit margin perimeter length; settings: 50 μM, mean ± SEM, * p<0.05 vs control
Protocol: Lamellipodial protrusion is known to drive most forms of animal cell crawling. At any given time in the migrating cell sheet, some cells are extending lamellipodia at the margin while others are not. […] Therefore, inhibition of cell sheet migration by compound 1 at least in part is attributed to reduced formation of lamellipodia at the would margin.
Lamellipodial density at the margin of MDCK cell wounds was determined under the following treatment conditions: 0.1% DMSO (control, n=25 wounded monolayers), 50 μM compound 1 (n=19), or 50 μM compound 11 (n=10). Lamellipodial density is the number of lamellipodial protrusions detected at the wound margin until closure for the times indicated divided by margin perimeter length. Values are mean±SEM.
(§1) Wound closure assay and compound screening: MDCK cells were plated on multiwell tissue culture plates and cultured at 37° C. and 5% CO2 with medium changes every two days until confluent. When the cultures reached confluence, medium was changed again and all experimental treatments were begun a day later. Compounds were solubilized in dimethyl sulfoxide (DMSO) and added with fresh-medium to cell cultures at initial screening concentrations of 10 and 100 μM. Controls consisted of parallel wells to-which DMSO solvent carrier alone was added at the same concentration as that added with experimental treatments (not exceeding 0.1% (v/v)). DMSO alone at this concentration had no detectable effect on the cells. Monolayers were scraped 30 min later with a micropipette and ultramicro tips, allowing small wounds of consistent size to be generated. Progress of wound closure was examined at set time intervals following wounding by microscope, and inhibitory or acceleratory effects on wound closure relative to parallel controls noted. […] Digital images of the wounded monolayers were taken every 2 hours for 18 hours, and then at 30, 36, 54, 60, and 72 hours following wounding. The number of lamellipodia at the wound margin was also counted at these times.

[4] = tested on: Madin-Darby canine kidney (MDCK) cell monolayers; experiment: scrape-wound closure assay in MDCK cell monolayers; format: cell-based; settings: even at the highest concentration tested (500 μM)
Text: A method of determining the ability of a compound to inhibit or accelerate cell motility is a scrape-wound closure assay using cultured mammalian epithelial cell monolayers. Mechanical scraping of the epithelial monolayer induces cell sheet migration into the resulting gap, a phenomenon characteristic of wounded epithelia and mechanistically related to normal epithelial movements during embryonic morphogenesis (A. Jacinto et al., Nat. Cell Biol, 3, E117 (2001)). Epithelial cell sheet migration in this method proceeds by a Rac- and phosphoinositide-dependent cell crawling mechanism resembling the motility of other animal cells that move as individuals rather than as cell sheets (G. Fenteany et al., Curr. Biol., 10, 831 (2000)).
Wound closure in MDCK cell monolayers primarily involves cell spreading and motility rather than proliferation based on observations and treatments that block cell growth without inhibiting closure. However, after closure is complete and the gap is covered, cell division is observed in the former wound area, presumably as part of a homeostatic mechanism to regain the original cell density (M. F. Olson et al., Science, 269, 1270 (1995)). Wound closure involves Rac- and phosphoinositide-dependent actin polymerization and protrusion-driven cell crawling behavior, where force generation for movement is distributed from the wound margin to several rows of cells behind the margin. Accordingly, this method is excellent for determining whether a compound affects cell motility.
Cell culture conditions: Madin-Darby canine kidney (MDCK) cells (American Type Culture Collection cell line CCL-34) were cultured in Minimum Essential Medium (with Earle's balanced salts, non-essential amino acids, L-glutamine and sodium pyruvate) supplemented with 10% newborn calf serum at 37° C. and 5% carbon dioxide (CO2). Main cultures were grown in either […] tissue culture flasks with medium changes every two days. When cultures were about 75% confluent, cells were passaged by rinsing twice with single strength phosphate buffered saline (PBS) and treating with a solution of 0.05% (w/v) trypsin/0.02% (w/v) ethylenediaminetetraacetic acid (EDTA) in PBS to detach cells from the flasks. After cells were detached, an equal volume of serum-containing medium was added to inhibit the trypsin and cell density was determined using a hemacytometer. Cells were replated following dilution in fresh medium on new tissue culture flasks for continued culture and multiwell tissue culture plates for experiments. No culture used exceeded 15 passages. Experimental cultures were grown in 12-, 24-, 48-, or 96-well tissue culture plates with medium changes every two days.
as §1, with “times. […]” for “times.”

[5] = solubility in carrier solvent; format: physicochemical
Protocol: Experiments were carried out in 12-well flat-bottom polystyrene plates with 4-8 embryos per well in 1.0 ml of one-tenth strength MBS with 50 μg/ml gentamycin at 19° C. Staging of embryos was done according to the classification of Nieuwkoop and Faber. Embryos at stage 8.5-9 (late blastula stages prior to the debut of gastrulation at stage 10) or at the 2-cell stage (after the first cleavage division, Nieuwkoop and Faber stage 2), as indicated in the figures, were treated with a test compound or dimethylsulfoxide (DMSO) carrier solvent and maintained at 19° C. […] DMSO alone at this concentration had no detectable effect on the embryos. […] As with 0.1% DMSO, this concentration of DMF had no effect on development of the frog embryos. Each experiment was conducted in triplicate on at least three separate occasions for a total of 9 or more wells per treatment. Embryos were observed using a stereomicroscope and scored for defects or delayed development at set times (0, 3, 6, 9, 12, 24, 48, 72, and 96 hours) following treatment.

[6] = 72 hr after treatment, dose-response, 5 concentrations

| Structure (SMILES) | pEC50 ([1]; 72 h) | pEC50 [1, 6] | other results |
| --- | --- | --- | --- |
| C/C=C/C(=O)N1CCOC1=O [Compound 6] | 4.41 | – | – |
| CCCC(=O)N1C(=O)OC[C@@H]1Cc1ccccc1 [Compound 11] | – | – | inhibition of MDCK cell proliferation (percent increase in cell number) ([2]; 50 μM, 0 to 48 hours): not; bioactivity in cell proliferation assay ([2]; even at the highest concentration tested (500 μM)): no statistically significant bioactivity; Lamellipodial Density ([3]; 2 hours): 0.563 ± 0.148; Lamellipodial Density ([3]; 4 hours): 1.139 ± 0.270; Lamellipodial Density ([3]; 6 hours): 1.289 ± 0.276; Lamellipodial Density ([3]; 8 hours): 1.196 ± 0.312; Lamellipodial Density ([3]; 10 hours): 1.609 ± 0.357; Lamellipodial Density ([3]; 12 hours): 1.368 ± 0.309; bioactivity in wound closure assay [4]: no statistically significant bioactivity |
| CC/C=C/C(=O)N1C(=O)OC[C@@H]1Cc1ccccc1 [Compound 13] | – | 4.26 | – |
| C/C=C/C(=O)N1C(=O)OC[C@@H]1C(C)C [Compound 15] | 4.59 | – | – |
| C/C=C\C(=O)N1C(=O)OC[C@@H]1Cc1ccccc1 [Compound 17] | 4.72 | – | – |
| O=C(/C=C/c1c(F)c(F)c(F)c(F)c1F)N1C(=O)OC[C@@H]1Cc1ccccc1 [Compound 22] | – | – | solubility in DMF versus DMSO [5]: more soluble in DMF |
| CCCCC/C=C/C(=O)N1C(=O)OC[C@@H]1Cc1ccccc1 [Compound 23] | – | 4.24 | – |
| C/C=C/C(=O)N1C(=O)O[C@@H](c2ccccc2)[C@@H]1C [Compound 25] | 4.86 | – | – |
| C/C=C/C(=O)N1C(=O)O[C@H](c2ccccc2)[C@H]1C [Compound 26] | 4.90 | – | – |
| C/C=C/C(=O)N1C(=O)OC[C@@H]1c1ccccc1 [Compound 30] | 5.00 | – | – |
| CC#CC(=O)N1C(=O)OC[C@@H]1Cc1ccccc1 [Compound 31] | – | 5.23 | – |
| O=C(/C=C/c1cccc(F)c1)N1C(=O)OC[C@@H]1Cc1ccccc1 [Compound 33] | – | 4.32 | – |
| O=C(/C=C/c1ccc(O)cc1)N1C(=O)OC[C@@H]1Cc1ccccc1 [Compound 41] | – | 4.57 | solubility in DMF versus DMSO [5]: more soluble in DMF |
| C/C=C/C(=O)N1C(=O)OC[C@H]1Cc1ccccc1 [Compound 45] | 5.05 | – | – |
| C=CC(=O)N1C(=O)OC[C@@H]1Cc1ccccc1 [Compound 52] | 5.21 | – | – |
| O=C(/C=C/c1cccc(C(F)(F)F)c1)N1C(=O)OC[C@@H]1Cc1ccccc1 [Compound 54] | – | 4.52 | – |
